Data: patent US11759477B2, “Compositions of nitrates and methods of use thereof” (Heartbeet Ltd., priority 2007, dated 2023)

What was measured:
[1] = Method: FIG. 2 is a graph showing changes in oxygen consumption (VO2) following iv infusion of sodium nitrite in increasing doses. Nitrite was infused over a 10 min period in non-smoking healthy male volunteers (30-70 years).
The present inventors have been studying the effects of nitrate and nitrite on various physiological functions including blood pressure, glucose metabolism and energy expenditure in vivo. In the examples below, unless otherwise noted, nitrate was administered perorally and nitrite was administered intravenously (iv). Oxygen consumption was measured using indirect calorimetry.
(§1) Prior to the test the subjects had been on a diet low in nitrate for one day and had been fasting for at least 8 h.

clinical = test: clinical
Method: as §1

[2] = format: in vivo, human
[3] = Blood pressure at rest after dietary sodium nitrate supplementation; format: in vivo, human; settings: 0.1 mmol/kg body weight/day oral, 3 days, mean±SD, n=9
Method: Subjects: Nine healthy, well trained (VO2peak 55±3.7 ml×kg-1×min-1), males (28±6 years) volunteered for the study. All subjects were trained cyclists or triathletes and well accustomed to the testing procedure. It was chosen to use well-trained subjects to avoid training effects from the tests such as enhanced VO2peak or better mechanical efficiency during submaximal exercise. The protocol was approved by the regional ethics committee in Stockholm and all subjects gave their written consent prior to participation.
Dietary supplementation with nitrate: The aim with the present study was to investigate the effects of two distinct dietary patterns, one with higher, and one with lower than normal nitrate intake. […] During two three-day periods, separated by a washout interval of ten days, the subjects were instructed to avoid all foods with moderate or high nitrate content (all vegetables, all cured meats, strawberries, grapes, and tea). In addition, they were told to restrain from alcohol and tobacco products. Otherwise they were free to eat any food they liked during the three days of restricted diet. The subjects were randomized to start with either ingestion of 0.1 mmol sodium nitrate/kg body weight/day dissolved in water or an equal amount of sodium chloride (placebo). The daily dose was divided and ingested three times daily. The different solutions could not be distinguished by taste or appearance. The daily nitrate dose corresponded to the amount normally found in 150-250 gram of a nitrate-rich vegetable such as spinach, lettuce or beetroot. The last dose of nitrate or placebo was ingested in the morning on the day of measurement (see the main tests below). The order between the nitrate supplementation period (NIT) and the placebo period (CON) was balanced.
The main tests: The subjects refrained from heavy exercise three days prior to the main tests and avoided all exercise the day before the tests. They were also told to eat their last light meal at least 3 hours before the start of the tests. […]

[4] = Oral Glucose Tolerance Test after nitrate pre-treatment (n=3); format: in vivo, human; settings: 75 g glucose, 60 min after nitrate 1 mmol/kg body weight NaNO3, n=3; placebo 8.2
Method: FIGS. 7a-7c consist of three graphs, showing changes in blood glucose levels after an oral challenge with glucose for three test subjects in a double-blind, placebo-controlled cross-over study (FIGS. 7a, 7b and 7c). A standard oral glucose tolerance test was performed. The subjects (healthy non-smoking volunteers) had their diet supplemented for 3 days with either sodium chloride (placebo) or sodium nitrate (Nitrate) at a dose of 0.1 mmol/kg body weight/day.
The increase in plasma glucose after a standard Oral Glucose Tolerance Test (75 g glucose in 250 ml water) is lower when measured after nitrate pre-treatment (1 mmol/kg body weight NaNO3) compared to placebo (NaCl). The study was performed with three healthy test subjects in a double-blind study. Glucose ingestion started 60 min after the nitrate ingestion. Blood glucose levels were measured during the 120 min period after the glucose load (n=3). At 30 min mean plasma glucose was 8.2 mmol/l with placebo and in the same subjects 6.5 mmol/l after nitrate supplementation.

[5] = Oral Glucose Tolerance Test after three-day sodium nitrate supplementation (n=8); format: in vivo, human; settings: 75 g glucose, 0.1 mmol/kg body weight/day for three days
Method: FIG. 8 is a graph showing changes in blood glucose levels after an oral challenge with glucose in 8 additional subjects in a double-blind, placebo-controlled cross-over study. A standard oral glucose tolerance test was performed. The subjects (healthy non-smoking volunteers) had their diet supplemented for 3 days with either sodium chloride (PLACEBO) or sodium nitrate (NITRATE) at a dose of 0.1 mmol/kg/day. Data are presented as mean±SEM.
The lower increase in plasma glucose after nitrate pre-treatment was verified in a further study wherein a standard Oral Glucos Tolerance Test (75 g glucose) was performed in 8 healthy non-smoking subjects after a three-day supplementation with either sodium chloride or sodium nitrate at equal molar amounts (0.1 mmol/kg body weight/day). […] Blood glucose levels were measured at two time points before (−10 and 0 min) and at 15, 30, 45, 60, 75, 90, 105 and 120 min after glucose intake (n=8). At the occasion when the subjects had taken nitrate, the area under the curve for blood glucose was smaller compared to when they had ingested placebo.

[6] = Plasma nitrite after intraperitoneal nitrate in wild type, germ free and eNOS knockout mice; format: in vivo; settings: 10 mg/kg ip, 1 hour later
Method: Three different strains of mice—wild type (n=5 placebo, n=5 nitrate), germ free (n=5 placebo, n=5 nitrate) and eNOS knockout mice (n=2 placebo, n=3 nitrate), were given an intra peritoneal injection of 10 mg/kg body weight nitrate or placebo (NaCl) and plasma level of nitrite measured 1 hour later.

[7] = Post-ischemic abdominal aortic blood flow after nitrate infusion; format: in vivo; settings: rats, 10 mg/kg iv bolus + 3 mg/kg/h
Method: Rats received an intravenous bolus dose of 10 mg/kg nitrate (NaNO3, n=4) or placebo (NaCl, n=4)) diluted in PBS (pH 7.4) followed by continuous infusion of 3 mg/kg body weight/h. An hour after the addition of nitrate (open boxes) or placebo (filled circles), L-NAME (50 mg/kg) was given, and 10 minutes later, a supra renal clamping of the abdominal aorta was performed. After 30 minutes of ischemia the clamp was removed and the abdominal aortic blood flow was monitored during 60 minutes.

Remark: listed apart in the source
[8] = not given; remark: listed apart in the source
[9] = anesthetized rats, 10 mg/kg bolus NaNO3

## O=NO [sodium nitrite]
[1]; after 10 min of iv infusion, n=4, major drop at 10 nmoles/kg body weight/min
  Reduction of resting energy expenditure: 10-25%
[1]; iv 1 nmol/kg body weight/min, 10 min observation period
  Effect on energy expenditure / oxygen consumption: no obvious effects
[1]; iv 100 nmol/kg body weight/min
  Oxygen consumption compared to the 10 nmol dose: no further decrease in oxygen consumption
clinical; basal 1.1-1.3 mmol/l, did not change significantly
  Methemoglobin after infusion of nitrite: 1.1 to 1.4 mmol/L
clinical; human, plasma, iv, 10 nmol/kg body weight/min
  concentration at 10 min: 370 to 480 nM

## O=[N+]([O-])[O-].[Na+] [sodium nitrate]
[2]; 45-80% VO2peak
  Average lowering of VO2 vs CON over the 4 submaximal work rates: 0.15 L/min
[2]; any of the submaximal work rates
  VE, VE/VO2 or respiratory exchange ratio (RER), NIT vs CON: No significant differences
[2]; any work load (submax or max)
  Rating of perceived exertion (Borg RPE-scale), NIT vs CON: no difference
[2]; average, p=0.02 vs CON
  Gross efficiency (GE): 21.1%
[2]; four lowest work rates, linear regression, p=0.04 vs CON
  Delta efficiency (DE): 22.9±1.9%
[2]; in vivo
  [Hla] (plasma lactate), NIT vs CON: No significant differences
[2]; maximal work, no significant difference, p=0.29
  VO2peak: 4.49 ± 0.44 L/min
[2]; maximal work, p=0.35
  Maximal work rate: 360.6±32.8 watt
[2]; maximal work, p=0.5
  VEmax: 182 ± 21.4 L/min
[2]; maximal work, p=0.94
  HRmax: 189.8±7.0 beats×min-1
[2]; submaximal work
  Heart rate (HR), NIT vs CON: no difference
  VO2 during the four work rates corresponding to 45-80% VO2peak, vs placebo period: significantly lower
[2]; submaximal work, 0.1 mmol/kg/day oral, 3 days, p=0.003 vs CON
  VO2 at 80% of VO2peak: 3.44 ± 0.31 L/min
[2]; submaximal work, p=0.08 vs CON
  Oxygen pulse: 20.3±1.9 ml×beat-1
[3]
  Average resting systolic blood pressure: 112±8 mmHg
  Resting diastolic blood pressure: 68±5.5 mmHg
[3]; listed as NIT
  Average resting systolic blood pressure: 120+/−5.9 mmHg
[4]
  Mean plasma glucose at 30 min: 6.5 mmol/L
[5]
  Area under the curve for blood glucose, vs placebo: smaller
[6]
  Nitrate-induced increase in plasma nitrite across wild type, germ free and eNOS knockout mice: equal
[7]
  Post-ischemic blood flow in early (0-10 minutes) and late (10-60 minutes) phase, vs placebo: higher blood flow
[7]; L-NAME, 30 min ischemia, control rats 20% of pre-ischemic values
  Abdominal aortic blood flow after 60 min of reperfusion: ~75 % of control values
0.1 mmol/kg/day oral, 3 days, after maximal work test
  Plasma nitrate levels immediately after the maximal work test: 175 ± 61 µM
0.1 mmol/kg/day oral, 3 days, at rest
  Plasma levels of nitrate at rest: 182 ± 55 µM
Compared with placebo period
  Decrease in nitrite concentrations during exercise, vs CON: more pronounced
In vivo, po
  Plasma nitrite levels at rest: 226 ± 87 nM
  Plasma nitrite levels immediately after the maximal work test: 137 ± 48 nM
p=0.08
  Increase in c-GMP concentrations after the maximal work as compared to rest, vs CON: tended to be higher
p=0.8
  Change of plasma nitrate during exercise: did not change
[8]; [9]
  Concentration of plasma nitrate after infusion: increases dramatically
  Plasma nitrite concentrations after infusion: increased
[8]; rats, p<0.05
  Increase in plasma nitrite, nitrate only vs nitrate+allopurinol: significantly greater
